Data: patent US11912701B2, “Protein kinase inhibitors for promoting liver regeneration or reducing or preventing hepatocyte death” (HEPAREGENIX GMBH, priority 2018, dated 2024)

Legend:
Format in all cases: biochemical
[1] = target: T1, MKK4 (Homo sapiens, UniProt P45985); assay: 33PanQinase enzyme assay, MKK4; details: assay 'IC50'; read-out: Potency MKK4 (IC50)
T1 construct: purchased ProQinase GmbH, Freiburg, Germany (33PanQinase Assay Service)
T1 sequence (P45985 1-399): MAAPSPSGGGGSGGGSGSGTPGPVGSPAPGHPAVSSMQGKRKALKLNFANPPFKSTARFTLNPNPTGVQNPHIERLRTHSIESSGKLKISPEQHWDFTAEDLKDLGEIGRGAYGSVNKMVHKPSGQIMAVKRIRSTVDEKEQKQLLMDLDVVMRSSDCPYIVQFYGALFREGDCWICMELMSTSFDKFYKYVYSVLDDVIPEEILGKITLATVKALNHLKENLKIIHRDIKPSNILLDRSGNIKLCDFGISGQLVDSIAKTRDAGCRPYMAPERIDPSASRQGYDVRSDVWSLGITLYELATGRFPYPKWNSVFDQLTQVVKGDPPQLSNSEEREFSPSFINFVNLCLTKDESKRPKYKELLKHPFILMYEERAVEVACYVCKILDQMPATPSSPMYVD
Method: (§1) The kinase activities of the compounds of the invention were measured using the 33PanQinase® Assay Service provided by ProQinase GmbH, Freiburg, Germany. Details of the assay conditions are disclosed on the website of ProQinase (https://www.proginase.com/products-services-biochemical-assay-services/kinase-assays). In brief, all kinase assays were performed in 96-well FlashPlates™ from PerkinElmer (Boston, MA, USA) in a 50 μl reaction volume. The reaction cocktail was pipetted in four steps in the following order: • 20 μl of assay buffer (standard buffer) • 5 μl of ATP solution (in H2O) • 5 μl of test compound (in 10% DMSO) • 20 μl enzyme/subtrate mix
(§2) The reaction cocktails were incubated at 30° C. for 60 minutes. The reaction is stopped with 50 μl of 2% (v/v) H3PO4, plates were aspirated and washed two times with 200 μl 0.9% (w/v) NaCl. Incorporation of ^33Pi was determined with a microplate scintillation counter (Microbeta, Wallac).
(§3) All assays were performed with a BeckmanCoulter/SAGIAN™ Core System.
(§4) In case of single concentration assays, the potency of the test compound is expressed as % residual activity. […] The fitting method used was a least-squares fit.
Inhibition potency against MKK4 is categorized as follows:
Assay at single concentration (100 nM):

[2] = target: T2, MKK7 (Homo sapiens, UniProt O14733); assay: 33PanQinase enzyme assay, MKK7; set-up: purchased ProQinase GmbH, Freiburg, Germany (33PanQinase Assay Service); details: ratio IC50(MKK7)/IC50(MKK4)
T2 sequence (O14733 1-419): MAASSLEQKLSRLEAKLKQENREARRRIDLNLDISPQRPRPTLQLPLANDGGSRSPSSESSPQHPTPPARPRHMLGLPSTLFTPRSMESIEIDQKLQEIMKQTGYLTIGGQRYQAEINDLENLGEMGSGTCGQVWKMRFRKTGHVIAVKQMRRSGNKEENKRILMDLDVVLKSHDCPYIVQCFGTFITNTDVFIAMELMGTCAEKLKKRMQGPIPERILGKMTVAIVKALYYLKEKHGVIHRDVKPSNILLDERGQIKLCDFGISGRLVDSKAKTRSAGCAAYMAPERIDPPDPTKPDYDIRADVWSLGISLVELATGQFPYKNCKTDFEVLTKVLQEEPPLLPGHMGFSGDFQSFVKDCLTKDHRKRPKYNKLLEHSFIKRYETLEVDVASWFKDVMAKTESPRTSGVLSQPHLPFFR
Method: as §1, §2, §3, §4
(§5) Selectivity of test compounds against BRaf, JNK1 and MKK7, altogether denominated as off-targets was calculated by the ratio of IC50 (off-target)/IC50 (MKK4) and categorized as follows: […]

[3] = target: JNK1 (Homo sapiens, UniProt P45983); assay: 33PanQinase enzyme assay, JNK1; set-up: purchased ProQinase GmbH, Freiburg, Germany (33PanQinase Assay Service); details: ratio IC50(JNK1)/IC50(MKK4)
Method: as §1, §2, §3, §4, §5

[4] = target: T3, BRaf (Homo sapiens, UniProt P15056); assay: 33PanQinase enzyme assay, BRaf; details: ratio IC50(BRaf)/IC50(MKK4)
T3 construct: purchased ProQinase GmbH, Freiburg, Germany (33PanQinase Assay Service)
Method: as §1, §2, §3, §4, §5

T3 sequence (P15056 whole entry, species assumed): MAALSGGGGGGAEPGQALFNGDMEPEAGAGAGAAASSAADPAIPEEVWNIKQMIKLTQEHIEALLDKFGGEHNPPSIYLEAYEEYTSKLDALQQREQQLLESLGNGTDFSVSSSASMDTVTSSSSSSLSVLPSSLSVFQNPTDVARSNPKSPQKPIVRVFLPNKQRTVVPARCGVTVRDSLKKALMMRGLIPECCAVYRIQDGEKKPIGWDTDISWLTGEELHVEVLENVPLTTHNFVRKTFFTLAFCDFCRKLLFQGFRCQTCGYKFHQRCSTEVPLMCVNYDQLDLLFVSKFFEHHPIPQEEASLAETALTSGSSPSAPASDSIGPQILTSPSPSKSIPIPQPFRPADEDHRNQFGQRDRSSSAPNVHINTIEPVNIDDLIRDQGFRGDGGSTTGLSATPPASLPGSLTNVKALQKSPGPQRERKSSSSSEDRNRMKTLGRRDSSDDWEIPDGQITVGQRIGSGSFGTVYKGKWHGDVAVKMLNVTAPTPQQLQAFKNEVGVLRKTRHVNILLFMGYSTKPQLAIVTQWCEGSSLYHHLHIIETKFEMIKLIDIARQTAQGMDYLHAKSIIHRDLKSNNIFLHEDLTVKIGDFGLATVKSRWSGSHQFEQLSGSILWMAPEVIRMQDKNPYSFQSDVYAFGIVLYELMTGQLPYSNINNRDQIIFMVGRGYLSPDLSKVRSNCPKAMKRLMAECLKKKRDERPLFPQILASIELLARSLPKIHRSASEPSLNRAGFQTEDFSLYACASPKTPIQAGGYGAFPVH
JNK1, sequence (P45983 whole entry): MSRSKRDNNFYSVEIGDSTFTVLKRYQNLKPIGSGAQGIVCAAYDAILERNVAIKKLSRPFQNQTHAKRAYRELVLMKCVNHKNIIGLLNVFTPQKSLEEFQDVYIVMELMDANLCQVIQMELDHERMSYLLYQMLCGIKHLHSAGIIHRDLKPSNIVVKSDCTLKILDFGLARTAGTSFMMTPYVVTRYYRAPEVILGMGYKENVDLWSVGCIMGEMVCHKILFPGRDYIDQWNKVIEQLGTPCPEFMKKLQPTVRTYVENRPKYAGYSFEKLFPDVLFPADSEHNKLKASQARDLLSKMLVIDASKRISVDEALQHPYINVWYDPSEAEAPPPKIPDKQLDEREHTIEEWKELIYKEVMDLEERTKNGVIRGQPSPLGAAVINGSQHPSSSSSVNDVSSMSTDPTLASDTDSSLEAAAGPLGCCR

For `CCCS(=O)(=O)Nc1ccc(F)c(C(=O)c2c[nH]c3ncc(-c4ccc([S+](C)[O-])cc4)cc23)c1F` (stereo not shown) [Example 75, N-(2,4-difluoro-3-(5-(4-(methylsulfinyl)phenyl)-1H-pyrrolo[2,3-b]pyridine-3-carbonyl)phenyl)propane-1-sulfonamide], which IC50 [1] is on record?
The IC50 was 0.1 to 1 µM.

What about the “Selectivity IVIKK7, IC50(off-target)/IC50(MKK4)” value (“Selectivity IVIKK7” for short) [2] of the same molecule?
The value was “+++ (IC50(off-target)/IC50(MKK4) > 100)”.

What about the “Selectivity JNK1, IC50(off-target)/IC50(MKK4)” value (shortened to “Selectivity JNK1”) [3] of the same molecule?
Its value is “+ (10 ≥ IC50(off-target)/IC50(MKK4) > 3)”.

And the “Selectivity Braf, IC50(off-target)/IC50(MKK4)” value (from here on “Selectivity Braf”) [4]?
Its value is “◯ (3 ≥ IC50(off-target)/IC50(MKK4))”.

What does the source list for `COc1ncc(-c2cnc3[nH]cc(C(=O)c4cccc(NS(=O)(=O)Cc5ccccc5)c4F)c3c2)cn1` [Example 130, N-(2-fluoro-3-(5-(2-methoxypyrimidin-5-yl)-1H-pyrrolo[2,3-b]pyridine-3-carbonyl)phenyl)-1-phenylmethanesulfonamide]?
IC50 [1]: 0.1 to 1 µM; Selectivity IVIKK7, IC50(off-target)/IC50(MKK4) [2]: +++ (IC50(off-target)/IC50(MKK4) > 100); Selectivity JNK1, IC50(off-target)/IC50(MKK4) [3]: ++ (100 ≥ IC50(off-target)/IC50(MKK4) > 10); Selectivity Braf, IC50(off-target)/IC50(MKK4) [4]: ++ (100 ≥ IC50(off-target)/IC50(MKK4) > 10)

With `CCCS(=O)(=O)Nc1ccc(F)c(C(=O)c2c[nH]c3ncc(N4CC(O)C4)cc23)c1F` [Example 134, N-(2,4-difluoro-3-(5-(3-hydroxyazetidin-1-yl)-1H-pyrrolo[2,3-b]pyridine-3-carbonyl)phenyl)propane-1-sulfonamide] as the molecule, how does the IC50 [1] read?
The IC50 was 1 to 10 µM.

And the “Selectivity IVIKK7” value [2]?
The value was “++ (100 ≥ IC50(off-target)/IC50(MKK4) > 10)”.

And the “Selectivity JNK1” value [3]?
The value was “◯ (3 ≥ IC50(off-target)/IC50(MKK4))”.

What about the “Selectivity Braf” value [4] of the same molecule?
The value was “◯ (3 ≥ IC50(off-target)/IC50(MKK4))”.

Which results are given for `C#Cc1ncc(-c2cnc3[nH]cc(C(=O)c4ccc(F)c(NS(=O)(=O)CCC)c4F)c3c2)cn1` [Example 208, N-(3-(5-(2-ethynylpyrimidin-5-yl)-1H-pyrrolo[2,3-b]pyridine-3-carbonyl)-2,6-difluorophenyl)propane-1-sulfonamide]?
IC50 [1]: < 0.1 µM; Selectivity IVIKK7, IC50(off-target)/IC50(MKK4) [2]: ++ (100 ≥ IC50(off-target)/IC50(MKK4) > 10); Selectivity JNK1, IC50(off-target)/IC50(MKK4) [3]: +++ (IC50(off-target)/IC50(MKK4) > 100); Selectivity Braf, IC50(off-target)/IC50(MKK4) [4]: ++ (100 ≥ IC50(off-target)/IC50(MKK4) > 10)

How did the IC50 [1] turn out when `CCCS(=O)(=O)Nc1c(F)ccc(C(=O)c2c[nH]c3ncc(-c4cnc(C(N)=O)nc4)cc23)c1F` [Example 190, 5-(3-(2,4-difluoro-3-(propylsulfonamido)benzoyl)-1H-pyrrolo[2,3-b]pyridin-5-yl)pyrimidine-2-carboxamide] was run?
Its IC50 is < 0.1 µM.

And the “Selectivity IVIKK7” value [2]?
Its value is “+++ (IC50(off-target)/IC50(MKK4) > 100)”.

And the “Selectivity JNK1” value [3]?
The value was “+++ (IC50(off-target)/IC50(MKK4) > 100)”.

And the “Selectivity Braf” value [4]?
Its value is “+++ (IC50(off-target)/IC50(MKK4) > 100)”.

For `CCCS(=O)(=O)Nc1ccc(F)c(C(=O)c2c[nH]c3ncc(-c4ccc(S(=O)(=O)C(F)F)cc4)cc23)c1F` [Example 74, N-(3-(5-(4-((difluoromethyl)sulfonyl)phenyl)-1H-pyrrolo[2,3-b]pyridine-3-carbonyl)-2,4-difluorophenyl)propane-1-sulfonamide], which IC50 [1] is on record?
The IC50 was 0.1 to 1 µM.

What about the “Selectivity IVIKK7” value [2] of the same molecule?
The value was “+++ (IC50(off-target)/IC50(MKK4) > 100)”.

What about the “Selectivity JNK1” value [3] of the same molecule?
Its value is “+ (10 ≥ IC50(off-target)/IC50(MKK4) > 3)”.

What about the “Selectivity Braf” value [4] of the same molecule?
Its value is “◯ (3 ≥ IC50(off-target)/IC50(MKK4))”.

How did the IC50 [1] turn out when `CCCS(=O)(=O)Nc1c(F)ccc(C(=O)c2c[nH]c3ncc(-c4cnc(-c5ccc6nc[nH]c6c5)nc4)cc23)c1F` [Example 210, N-(3-(5-(2-(1H-benzo[d]imidazol-6-yl)pyrimidin-5-yl)-1H-pyrrolo[2,3-b]pyridine-3-carbonyl)-2,6-difluorophenyl)propane-1-sulfonamide] was run?
Its IC50 is 1 to 10 µM.

And the “Selectivity IVIKK7” value [2]?
The value was “++ (100 ≥ IC50(off-target)/IC50(MKK4) > 10)”.

And the “Selectivity JNK1” value [3]?
The value was “+ (10 ≥ IC50(off-target)/IC50(MKK4) > 3)”.

What about the “Selectivity Braf” value [4] of the same molecule?
The value was “++ (100 ≥ IC50(off-target)/IC50(MKK4) > 10)”.

How did the IC50 [1] turn out when `CCCS(=O)(=O)Nc1ccc(F)c(C(=O)c2c[nH]c3ncc(N4CCCCC4)cc23)c1F` [Example 140] was run?
Its IC50 is 1 to 10 µM.

And the “Selectivity IVIKK7” value [2]?
Its value is “++ (100 ≥ IC50(off-target)/IC50(MKK4) > 10)”.

What about the “Selectivity JNK1” value [3] of the same molecule?
Its value is “◯ (3 ≥ IC50(off-target)/IC50(MKK4))”.

What about the “Selectivity Braf” value [4] of the same molecule?
Its value is “◯ (3 ≥ IC50(off-target)/IC50(MKK4))”.

With `CCCS(=O)(=O)Nc1c(F)ccc(C(=O)c2c[nH]c3ncc(-c4cnc(C(C)C)nc4)cc23)c1F` [Example 193, N-(2,6-difluoro-3-(5-(2-isopropylpyrimidin-5-yl)-1H-pyrrolo[2,3-b]pyridine-3-carbonyl)phenyl)propane-1-sulfonamide] as the molecule, how does the IC50 [1] read?
Its IC50 is < 0.1 µM.

And the “Selectivity IVIKK7” value [2]?
Its value is “+++ (IC50(off-target)/IC50(MKK4) > 100)”.

And the “Selectivity JNK1” value [3]?
Its value is “+++ (IC50(off-target)/IC50(MKK4) > 100)”.

And the “Selectivity Braf” value [4]?
The value was “++ (100 ≥ IC50(off-target)/IC50(MKK4) > 10)”.

Which IC50 [1] does the source give for `CCCS(=O)(=O)Nc1c(F)ccc(C(=O)c2c[nH]c3ncc(-c4ccnnc4)cc23)c1F` [Example 144, N-(2,6-difluoro-3-(5-(pyridazin-4-yl)-1H-pyrrolo[2,3-b]pyridine-3-carbonyl)phenyl)propane-1-sulfonamide] here?
Its IC50 is < 0.1 µM.

What about the “Selectivity IVIKK7” value [2] of the same molecule?
The value was “+++ (IC50(off-target)/IC50(MKK4) > 100)”.

And the “Selectivity JNK1” value [3]?
Its value is “+++ (IC50(off-target)/IC50(MKK4) > 100)”.

What about the “Selectivity Braf” value [4] of the same molecule?
Its value is “++ (100 ≥ IC50(off-target)/IC50(MKK4) > 10)”.

How did the IC50 [1] turn out when `CCCS(=O)(=O)Nc1c(F)ccc(C(=O)c2c[nH]c3ncc(-c4ccc(S(C)(=N)=O)cc4)cc23)c1F` (stereo not shown) [Example 151, N-(2,6-difluoro-3-(5-(4-(S-methylsulfonimidoyl)phenyl)-1H-pyrrolo[2,3-b]pyridine-3-carbonyl)phenyl)propane-1-sulfonamide] was run?
The IC50 was 0.1 to 1 µM.

And the “Selectivity IVIKK7” value [2]?
Its value is “+++ (IC50(off-target)/IC50(MKK4) > 100)”.

And the “Selectivity JNK1” value [3]?
The value was “++ (100 ≥ IC50(off-target)/IC50(MKK4) > 10)”.

And the “Selectivity Braf” value [4]?
Its value is “++ (100 ≥ IC50(off-target)/IC50(MKK4) > 10)”.

What does the source list for `CCCS(=O)(=O)Nc1c(F)ccc(C(=O)c2c[nH]c3ncc(C4CCC4)cc23)c1F` [Example 239, N-(3-(5-cyclobutyl-1H-pyrrolo[2,3-b]pyridine-3-carbonyl)-2,6-difluorophenyl)propane-1-sulfonamide]?
IC50 [1]: < 0.1 µM; Selectivity IVIKK7, IC50(off-target)/IC50(MKK4) [2]: +++ (IC50(off-target)/IC50(MKK4) > 100); Selectivity JNK1, IC50(off-target)/IC50(MKK4) [3]: ++ (100 ≥ IC50(off-target)/IC50(MKK4) > 10); Selectivity Braf, IC50(off-target)/IC50(MKK4) [4]: +++ (IC50(off-target)/IC50(MKK4) > 100)

For `CCCS(=O)(=O)Nc1c(F)ccc(C(=O)c2c[nH]c3ncc(-c4ccc(S(C)(=N)=O)nc4)cc23)c1F` (stereo not shown) [Example 164, N-(2,6-difluoro-3-(5-(6-(S-methylsulfonimidoyl)pyridin-3-yl)-1H-pyrrolo[2,3-b]pyridine-3-carbonyl)phenyl)propane-1-sulfonamide], which IC50 [1] is on record?
Its IC50 is < 0.1 µM.

What about the “Selectivity IVIKK7” value [2] of the same molecule?
The value was “+++ (IC50(off-target)/IC50(MKK4) > 100)”.

And the “Selectivity JNK1” value [3]?
The value was “++ (100 ≥ IC50(off-target)/IC50(MKK4) > 10)”.

And the “Selectivity Braf” value [4]?
Its value is “++ (100 ≥ IC50(off-target)/IC50(MKK4) > 10)”.
